Tested on: LL/2 lung cancer tumor endothelial cells
Assay: Lung LL2 ex vivo model of tumor angiogenesis
Format: cell-based, mouse
Details: for Cell death: drug treatment for two days, ratio of red area to total endothelial cell area; for 48 hrs (morphology observations): LL/2 tumor endothelial cells
Summary of the method: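 Live/dead imaging with FDA and PI, taken e.g. 48 h post-drug under fixed channel settings, measures treatment effects on endothelial cells sprouting from Lewis lung tumor explants. Explants were seeded in Matrigel drops and grown ~4 days in endothelial growth medium, 37 °C, 5% CO2, before dosing.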

[1] = Mus musculus, Endothelial cell, 48 h, read-out: Cell death

Row | SMILES | 48 hrs (morphology observations) (40 μm) | Cell death (40 μm) [%] | further results
1 | CC(C)CCCC(C)CCOc1ccc(S(=O)(=O)c2cnc3ccc([S+](C)[O-])cc3c2N2CCC(N3CCC(N4CCCCC4)CC3)CC2)cc1 (stereo not drawn) [Compound 289] |  |  | Cell death (20 μm): 20%
2 | CCCCCCCCCCOc1ccc(S(=O)(=O)c2cnc3ccc([S+](C)[O-])cc3c2N2CCC(N3CCC(N4CCCCC4)CC3)CC2)cc1F (stereo not drawn) [Compound 290] |  |  | 48 hrs (morphology observations) (10 μm): *** (more than 50% but less than 100% of endothelial cells vesicularize in cell shape); cytotoxicity at 10 µM [1]: 50%
3 | CCCCCCCCCCOc1ccc(S(=O)(=O)c2cnc3ccc([S+](C)[O-])cc3c2N2CCC(N3CCN(CCO)CC3)CC2)cc1F (stereo not drawn) [Compound 291] |  |  | Cell death, read at 24 hrs (20 μm): 10%; Endothelial cell morphology score at 24 hrs (20 μm): * (50% or less of cells vesicularize in cell shape)
4 | CCCCCCCCCCOc1ccc(S(=O)(=O)c2cnc3ccc([S+](C)[O-])cc3c2N2CCC(N3CCC(N4CCN(CCO)CC4)CC3)CC2)cc1 (stereo not drawn) [Compound 292] |  |  | Cell death, read at 24 hrs (20 μm): 10%; Endothelial cell morphology score at 24 hrs (20 μm): * (50% or less of cells vesicularize in cell shape)
5 | CCN(c1c(S(=O)(=O)c2ccc(OC)cc2)cnc2cc(OC)c(OC)cc12)C(C)C [Compound 294] | * (50% or less of cells vesicularize in cell shape) | 50 | 
6 | CCN(CC)CCN(CC)c1c(S(=O)(=O)c2ccc(OC)cc2)cnc2cc(OC)c(OC)cc12 [Compound 296] | 0 | 20 | 
7 | CCN(CC)CCC(C)Nc1c(S(=O)(=O)c2ccc(OC)cc2)cnc2cc(OC)c(OC)cc12 (stereo not drawn) [Compound 300] | 0 | 20 | 
8 | CCN(CC)CCCN1CCN(c2c(S(=O)(=O)c3ccc(OC)cc3)cnc3cc(OC)c(OC)cc23)CC1 [Compound 302] | 0 | 70 | 
9 | COc1ccc(S(=O)(=O)c2cnc3cc(OC)c(OC)cc3c2N2C[C@@H]3C[C@H]2CN3C)cc1 [Compound 306] | 0 |  | cytotoxicity at 40 µM [1]: 40%
10 | COc1ccc(S(=O)(=O)c2cnc3cc(OC)c(OC)cc3c2N2CCC(O)(c3ccccc3)CC2)cc1 [Compound 308] | 0 | 20 | 
11 | CNC(=O)c1ccc(C2CCN(c3c(S(=O)(=O)c4ccc(OC)cc4)cnc4cc(OC)c(OC)cc34)CC2)cc1 [Compound 310] | 0 | 10 | 
12 | COc1ccc(C2CCN(c3c(S(=O)(=O)c4ccc(OC)cc4)cnc4cc(OC)c(OC)cc34)CC2)cc1 [Compound 311] | 0 | 30 | 
13 | COc1ccc(S(=O)(=O)c2cnc3cc(OC)c(OC)cc3c2N2CCC(c3ccc(CN4CCCC4)cc3)CC2)cc1 [Compound 312] | **** (100% of endothelial cells vesicularize in cell shape and look flattened in morphology (indicating disintegration of the cell body)) | 100 | 
14 | CCOC(=O)c1ccc(N2CCN(c3c(S(=O)(=O)c4ccc(OC)cc4)cnc4cc(OC)c(OC)cc34)CC2)cc1 [Compound 317] | 0 | 30 | 
15 | COc1ccc(N2CCN(c3c(S(=O)(=O)c4ccc(OC)cc4)cnc4cc(OC)c(OC)cc34)CC2=O)cc1 [Compound 318] | 0 | 30 | 
16 | COc1ccc(S(=O)(=O)c2cnc3cc(OC)c(OC)cc3c2N2CCC(N3CCCCC3)CC2)cc1 [Compound 320] | 0 | 30 | 
17 | COc1ccc(S(=O)(=O)c2cnc3cc(OC)c(OC)cc3c2N2CCC(N3CCCC3=O)CC2)cc1 [Compound 321] | 0 | 40 | 
18 | COc1ccc(S(=O)(=O)c2cnc3cc(OC)c(OC)cc3c2N2CCC(N3CCCC3CO)CC2)cc1 (stereo not drawn) [Compound 322] | 0 | 30 | 
19 | COc1ccc(S(=O)(=O)c2cnc3cc(OC)c(OC)cc3c2N2CCCN(CCO)CC2)cc1 [Compound 323] | 0 | 30 | 
20 | COc1ccc(S(=O)(=O)c2cnc3cc(OC)c(OC)cc3c2N2CCC3C(COCCN3CC(C)C)C2)cc1 (stereo not drawn) [Compound 324] | 0 | 60 | 
21 | COc1ccc(S(=O)(=O)c2cnc3cc(OC)c(OC)cc3c2N2CCCN(CC3(O)CCCC3)CC2)cc1 [Compound 325] | * (50% or less of cells vesicularize in cell shape) | 30 | 
22 | COc1ccc(S(=O)(=O)c2cnc3cc(OC)c(OC)cc3c2N2CCCN(C3COC3)CC2)cc1 [Compound 326] | 0 | 30 | 
23 | COc1ccc(S(=O)(=O)c2cnc3cc(OC)c(OC)cc3c2N2CCCN(c3nc4ccc(Cl)cc4s3)CC2)cc1 [Compound 327] | 0 |  | cytotoxicity at 40 µM [1]: 20%

Row | SMILES | 48 hrs (morphology observations) (40 μm) | Cell death (40 μm) [%] | further results
24 | COc1ccc(S(=O)(=O)c2cnc3cc(OC)c(OC)cc3c2N2CCC(=O)N(C)CC2)cc1 [Compound 328] | 0 | 30 | 
25 | COc1ccc(S(=O)(=O)c2cnc3cc(OC)c(OC)cc3c2N2CCCN(C3CCSCC3)CC2)cc1 [Compound 329] | *** (more than 50% but less than 100% of endothelial cells vesicularize in cell shape) | 40 | 
26 | COc1ccc(S(=O)(=O)c2cnc3cc(OC)c(OC)cc3c2N2CCCN(C3CCS(=O)(=O)CC3)CC2)cc1 [Compound 330] | *** (more than 50% but less than 100% of endothelial cells vesicularize in cell shape) | 50 | 
27 | COc1ccc(S(=O)(=O)c2cnc3ccc(C(=O)N(C)C)cc3c2N2CCC(N3CCCCC3)CC2)cc1 [Compound 331] | 0 | 10 | 
28 | COc1ccc(S(=O)(=O)c2cnc3ccc(C(=O)N(C)C)cc3c2N2CCC(N3CCCC3=O)CC2)cc1 [Compound 332] | 0 | 0 | 
29 | COc1ccc(S(=O)(=O)c2cnc3ccc(C(=O)N(C)C)cc3c2N2CCCN(CC(=O)N(C)C)CC2)cc1 [Compound 333] | 0 | 0 | 
30 | CNC(=O)c1ccc2ncc(S(=O)(=O)c3ccc(OC)cc3)c(N3CCC(N4CCCC4CO)CC3)c2c1 (stereo not drawn) [Compound 336] | 0 | 0 | 
31 | CCCCCCCCCCCCCCOc1ccc(S(=O)(=O)c2cnc3ccc([S+](C)[O-])cc3c2N2CCC(N3CCN(CCO)CC3)CC2)cc1 (stereo not drawn) [Compound 339] |  |  | cytotoxicity at 20 µM [1]: 50%
32 | CCCCCCCCCCCCOc1ccc(S(=O)(=O)c2cnc3ccc([S+](C)[O-])cc3c2N2CCC(N3CCC(N4CCN(CCO)CC4)CC3)CC2)cc1 (stereo not drawn) [Compound 340] |  |  | 48 hrs (morphology observations) (20 μm): *** (more than 50% but less than 100% of endothelial cells vesicularize in cell shape); Cell death (20 μm): 60%
33 | CCCCCCCCCCCCOc1ccc(S(=O)(=O)c2cnc3ccc([S+](C)[O-])cc3c2N2CCC(N3CCC(N4CCN(C)CC4)CC3)CC2)cc1 (stereo not drawn) [Compound 341] |  |  | 48 hrs (morphology observations) (20 μm): *** (more than 50% but less than 100% of endothelial cells vesicularize in cell shape); Cell death (20 μm): 80%
34 | CCCCCCCCCCCCOc1ccc(S(=O)(=O)c2cnc3ccc([S+](C)[O-])cc3c2N2CCC(N3CCN(CCO)CC3)CC2)cc1 (stereo not drawn) [Compound 344] |  |  | 48 hrs (morphology observations) (20 μm): * (50% or less of cells vesicularize in cell shape); cytotoxicity at 20 µM [1]: 10%
35 | CCCCCCCCCCCCCCOc1ccc(S(=O)(=O)c2cnc3ccc([S+](C)[O-])cc3c2N2CCC(N3CCC(N4CCN(CCO)CC4)CC3)CC2)cc1 (stereo not drawn) [Compound 345] |  |  | 48 hrs (morphology observations) (20 μm): *** (more than 50% but less than 100% of endothelial cells vesicularize in cell shape); Cell death (20 μm): 50%
36 | CCCCOc1ccc(S(=O)(=O)c2cnc3ccc(SC)cc3c2N2CCC(N3CCCC3CO)CC2)cc1 (stereo not drawn) [Compound 350] | 0 |  | cytotoxicity at 40 µM [1]: 20%
37 | CCCCOc1ccc(S(=O)(=O)c2cnc3ccc(SC)cc3c2N2CCCN(CCO)CC2)cc1 [Compound 351] | *** (more than 50% but less than 100% of endothelial cells vesicularize in cell shape) |  | cytotoxicity at 40 µM [1]: 100%
38 | CCCCOc1ccc(S(=O)(=O)c2cnc3ccc(SC)cc3c2N2CCC3C(COCCN3CC(C)C)C2)cc1 (stereo not drawn) [Compound 352] | *** (more than 50% but less than 100% of endothelial cells vesicularize in cell shape) |  | cytotoxicity at 40 µM [1]: 100%
39 | CCCCOc1ccc(S(=O)(=O)c2cnc3ccc(SC)cc3c2N2CCCN(S(=O)(=O)NCC(F)(F)F)CC2)cc1 [Compound 353] | 0 |  | cytotoxicity at 40 µM [1]: 0%
40 | CCCCOc1ccc(S(=O)(=O)c2cnc3ccc(SC)cc3c2N2CCCN(CC3(O)CCCC3)CC2)cc1 [Compound 354] | 0 |  | cytotoxicity at 40 µM [1]: 0%
41 | CCCCOc1ccc(S(=O)(=O)c2cnc3ccc(SC)cc3c2N2CCCN(C3COC3)CC2)cc1 [Compound 355] | 0 |  | cytotoxicity at 40 µM [1]: 0%
42 | CCCCOc1ccc(S(=O)(=O)c2cnc3ccc(SC)cc3c2N2CCCN(c3nc4ccc(Cl)cc4s3)CC2)cc1 [Compound 356] | 0 |  | cytotoxicity at 40 µM [1]: 0%
43 | CCCCOc1ccc(S(=O)(=O)c2cnc3ccc(SC)cc3c2N2CCC(=O)N(C)CC2)cc1 [Compound 357] | 0 |  | cytotoxicity at 40 µM [1]: 0%
44 | CCCCOc1ccc(S(=O)(=O)c2cnc3ccc(SC)cc3c2N2CCCN(C3CCSCC3)CC2)cc1 [Compound 358] | 0 |  | cytotoxicity at 40 µM [1]: 0%
45 | CCCCOc1ccc(S(=O)(=O)c2cnc3ccc(SC)cc3c2N2CCCN(C3CCS(=O)(=O)CC3)CC2)cc1 [Compound 359] | 0 |  | cytotoxicity at 40 µM [1]: 20%
46 | CNC(=O)c1ccc2ncc(S(=O)(=O)c3ccc(OC)cc3)c(NC)c2c1 [Compound 360] | 0 |  | cytotoxicity at 40 µM [1]: 20%

Source: patent US20250230226A1, “PLXDC1/PLXDC2 ACTIVATORS AND THEIR USE IN THE TREATMENT OF BLOOD VESSEL DISORDERS” (THE REGENTS OF THE UNIVERSITY OF CALIFORNIA, priority 2019, published 2025)
